Data set [1] relates to penicillin-resistant Staphylococcus aureus P1383. The experiment in a line: Inhibition-zone assay (CL). It counts as cell-based. The following applies: concentration used in killing kinetics and membrane permeation. On the procedure:
(§1) The antimicrobial activity of seven peptides, including MeuFSPL-1, MeuFSPL-2, Marmelittin, Melittin, Meucin-22, Marcin-22, and MeuTXKβ1, was evaluated by the inhibition-zone assay previously described in our studies (Hultmark, [1998]; Zhu et al., [2012a]; Zhu and Gao, [2014]). Temperatures used were 30 or 37°C for bacteria or 28°C for fungi. Media used were Luria-Bertani (LB) Broth (10 g tryptone, 5 g yeast extract, and 5 g NaCl in 1 l of water) or Nutrient Broth (10 g peptone, 5 g beef extract powder, and 5 g NaCl in 1 l of water) or GYM(Isp2) (4 g yeast extract, 10 g malt extract, 4 g glucose, 2 g CaCO3 in 1 l of water) for bacteria or Potato Dextrose Broth (200 g patato and 20 g glucose in 1 l of water) for fungi. To make plates, 10 μl of microbial culture (~2 × 10^6 bacterial cells or fungal spores/ml) were mixed in 6 ml of medium containing 0.8% agar and poured into Peri dishes of 9.0 cm diameter. Wells with a diameter of 2 mm were punched into the medium, filled with 2 μl of sample each well. In this assay, three different doses of peptides were applied to three independent wells in one standard bacterial plate. After incubation overnight, inhibition zones were measured and used to calculate lethal concentrations (CL), a concentration just sufficient to inhibit bacterial growth (Hultmark, [1998]; Gao et al., [2009]). CL values are calculated from a plot of d^2 against log n, where d is the diameter (in cm) and n is the amount of sample applied in the well (in nmol). The plot is linear and thus CL can be calculated from the slope (k) and the intercept (m) of this plot. The formula used here is CL = 2.93/ak10^m/k, where “a” is the thickness of the bacterial plate and “CL” is in μM.

Another data set in a line: Serum stability. It counts as in vitro ADME. The following applies: fresh mouse serum, 37°C, read-out inhibition zone on S. aureus PRSA P1383 plates. How it is done: (§2) To assess serum stability, peptides were dissolved in H2O or fresh mouse serum for the indicated times at 37°C and their residual activity was measured by the inhibition-zone assay (Hultmark, [1998]).
The test system of another data set is S. aureus PRSA P1383. The experiment in a line: Killing kinetics. The following applies: 5x CL (20 μg/ml). It counts as cell-based, Staphylococcus aureus. How it is done: The in vitro killing curve for MeuTXKβ1 was determined against the bacterium S. aureus PRSA P1383. For the assay, a single fresh colony was inoculated into LB (Luria-Bertani) medium (10 g tryptone, 5 g yeast extract, and 5 g NaCl in 1 l of H2O) and incubated at 37°C until OD600 of 0.2. The initial concentration used was 4 × 10^7 cells/ml. Samples for colony counts were taken at time 0, 5, 10, 15, 20, 30, and 60 min after addition of peptides. Results are given as colony-forming units (CFUs) per milliliter.

The nature of the next data set: Stability in H2O. It is filed as physicochemical. The following applies: 37°C, read-out inhibition zone on S. aureus PRSA P1383 plates. How it is done:
as §2

Data set [2] has as its system Staphylococcus aureus J700. Kind of data set: Inhibition-zone assay (CL). It is filed as cell-based. To be noted: SA J700, N.A. = no activity at 0.8 nmol peptide each well. On the procedure: as §1
The subject of data set [3] is methicillin-resistant coagulase-negative Staphylococcus P1369. The experiment in a line: Inhibition-zone assay (CL). To be noted: MRCNS P1369, N.A. = no activity at 0.8 nmol peptide each well. It is filed as cell-based. On the procedure:
as §1

Data set [4] has as its system Staphylococcus aureus J706. The experiment in a line: Inhibition-zone assay (CL). It is filed as cell-based. To be noted: SA J706, N.A. = no activity at 0.8 nmol peptide each well. On the procedure: as §1
The subject of data set [5] is methicillin-sensitive Staphylococcus aureus CGMCC 1.89. The experiment in a line: Inhibition-zone assay (CL). It is filed as cell-based. To be noted: MSSA CGMCC 1.89, N.A. = no activity at 0.8 nmol peptide each well. How it is done:
as §1

The test system of data set [6] is Staphylococcus aureus J708. Kind of data set: Inhibition-zone assay (CL). It is filed as cell-based. To be noted: SA J708, N.A. = no activity at 0.8 nmol peptide each well. On the procedure:
as §1

The test system of data set [7] is Streptococcus salivarius ATCC 1.2498. Kind of data set: Inhibition-zone assay (CL). It is filed as cell-based. To be noted: SSAL ATCC 1.2498, N.A. = no activity at 0.8 nmol peptide each well. How it is done: as §1
Data set [8] relates to Stenotrophomonas maltophilia CGMCC 1.1788. Kind of data set: Inhibition-zone assay (CL). To be noted: SMAL CGMCC 1.1788, N.A. = no activity at 0.8 nmol peptide each well. It is filed as cell-based. How it is done: as §1
Data set [9] deals with Streptomyces scabiei CGMCC 4.1765. The experiment in a line: Inhibition-zone assay (CL). It counts as cell-based. To be noted: SSCA CGMCC 4.1765, N.A. = no activity at 0.8 nmol peptide each well. On the procedure:
as §1

In data set [10] the test system is penicillin-sensitive Staphylococcus epidermidis P1111. Kind of data set: Inhibition-zone assay (CL). It counts as cell-based. To be noted: PSSE P1111, N.A. = no activity at 0.8 nmol peptide each well. How it is done: as §1
Data set [11] deals with penicillin-resistant Staphylococcus epidermidis P1389. Kind of data set: Inhibition-zone assay (CL). It is filed as cell-based. The following applies: PRSE P1389, N.A. = no activity at 0.8 nmol peptide each well. On the procedure: as §1
Data set [12] has as its system Bacillus subtilis CGMCC 1.2428. Kind of data set: Inhibition-zone assay (CL). It counts as cell-based. The following applies: BS CGMCC 1.2428, N.A. = no activity at 0.8 nmol peptide each well. On the procedure:
as §1

Data set [13] concerns Streptococcus mutans ATCC 1.2499. The experiment in a line: Inhibition-zone assay (CL). The following applies: SM ATCC 1.2499, N.A. = no activity at 0.8 nmol peptide each well. It is filed as cell-based. How it is done:
as §1

The test system of data set [14] is Staphylococcus aureus J710. Kind of data set: Inhibition-zone assay (CL). It counts as cell-based. The following applies: SA J710, N.A. = no activity at 0.8 nmol peptide each well. How it is done: as §1
Data set [15] deals with Streptococcus sanguinis ATCC 1.2497. The experiment in a line: Inhibition-zone assay (CL). It is filed as cell-based. To be noted: SSAN ATCC 1.2497, N.A. = no activity at 0.8 nmol peptide each well. On the procedure: as §1
The subject of data set [16] is Streptomyces griseus NBRC 13350. The experiment in a line: Inhibition-zone assay (CL). To be noted: SG NBRC 13350, N.A. = no activity at 0.8 nmol peptide each well. It is filed as cell-based. On the procedure: as §1
Data set [17] concerns Staphylococcus warneri ATCC 1.2824. The experiment in a line: Inhibition-zone assay (CL). It is filed as cell-based. To be noted: SW ATCC 1.2824, N.A. = no activity at 0.8 nmol peptide each well. On the procedure:
as §1

Data set [18] relates to Staphylococcus aureus J685. The experiment in a line: Inhibition-zone assay (CL). It counts as cell-based. To be noted: SA J685, N.A. = no activity at 0.8 nmol peptide each well. On the procedure: as §1
For data set [19], the system named is Staphylococcus aureus J698. The experiment in a line: Inhibition-zone assay (CL). It counts as cell-based. The following applies: SA J698, N.A. = no activity at 0.8 nmol peptide each well. On the procedure: as §1
Setting [20] is: 24 h, three independent experiments.

Ends that are not written are not given here.

With `CN[C@H](CC(C)C)C(=O)N[C@H]1C(=O)N[C@@H](CC(N)=O)C(=O)N[C@H]2C(=O)N[C@H]3C(=O)N[C@H](C(=O)N[C@H](C(=O)O)c4cc(O)cc(O)c4-c4cc3ccc4O)[C@H](O)c3ccc(c(Cl)c3)Oc3cc2cc(c3O[C@@H]2O[C@H](CO)[C@@H](O)[C@H](O)[C@H]2O[C@H]2C[C@](C)(N)[C@H](O)[C@H](C)O2)Oc2ccc(cc2Cl)[C@H]1O` [vancomycin], the “5x CL for P1383” value in [1] came to 20 µg/mL. In addition, the “residual activity after incubation in mouse serum” value in the data set “Serum stability” (6 h) is reported as “remained its full activity”; in the data set “Serum stability” (setting [20]) it was “completely lose”. Besides, the “killing rate compared with MeuTXKβ1” value in the data set with S. aureus PRSA P1383 is reported as “slower killing rate”. Also, the “residual activity after incubation in H2O” value was “remained its full activity” in “Stability in H2O” (6 h) and “completely lose” in the data set “Stability in H2O” (setting [20]).

“IFGAIAGLLKNIF-NH2 [MUC-13, reference compound]”: the “Lethal concentration (CL)” value came out at 7.54 µM in [2]; 33.80 µM in [3]; 5.67 µM in [4]; 10.24 µM in data set [5]; 7.54 µM in data set [6]; 7.54 µM in [7]. The “Lethal concentration (CL)” value in data set [8] is 4.89 µM; in [9], 15.07 µM; in [10] it was 10.24 µM; in data set [11], 24.06 µM; in [12], 6.24 µM; in data set [13], 10.24 µM. The “Lethal concentration (CL)” value was 7.10 µM in data set [14]; 6.24 µM in data set [15]; 53.31 µM in data set [16]; 6.24 µM in data set [17]; 10.16 µM in [18]; 7.54 µM in data set [19].

These data come from publication PMC5863496, “Mesobuthus Venom-Derived Antimicrobial Peptides Possess Intrinsic Multifunctionality and Differential Potential as Drugs” (Frontiers in Microbiology, 2018).
